Measured values published in the supplement of paper PMC10307832.

Assays:
Assay in all cases: relative viability (nuclei count vs DMSO), 5 days (fraction); higher = more cells survive
LCLC-97TM1 = tested on: LCLC-97TM1
Procedure, shortened: (§1)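 Five library-drug doses in √10 steps were combined with a fixed anchor-drug dose, or a single drug was given alone, by pin tool to lung cancer cell lines in 1536-well plates the day after seeding. Nuclei were stained and counted after 5 days. Relative viability is the nuclei count in treated wells over that in vehicle wells, taken as the median of duplicate plates.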

NCI-H1993 = tested on: NCI-H1993
Procedure, shortened: as §1

NCI-H23 = tested on: NCI-H23
Procedure, shortened: as §1

NCI-H1915 = tested on: NCI-H1915
Procedure, shortened: as §1

LC-2-ad = tested on: LC-2-ad
Procedure, shortened: as §1

BEN = tested on: BEN
Procedure, shortened: as §1

LU99A = tested on: LU99A
Procedure, shortened: as §1

NCI-H1355 = tested on: NCI-H1355
Procedure, shortened: as §1

NCI-H1650 = tested on: NCI-H1650
Procedure, shortened: as §1

PC-3 [JPC-3] = tested on: PC-3 [JPC-3]
Procedure, shortened: as §1

NCI-H2228 = tested on: NCI-H2228
Procedure, shortened: as §1

LOU-NH91 = tested on: LOU-NH91
Procedure, shortened: as §1

O=C(O)CCCCC(CCSCc1ccccc1)SCc1ccccc1 (stereo not drawn) [CPI-613] + Cc1nc(Nc2ncc(C(=O)Nc3c(C)cccc3Cl)s2)cc(N2CCN(CCO)CC2)n1 [Dasatinib] (partner 0.075 µM)
relative viability (LCLC-97TM1; first compound 50 µM): 0.791
relative viability (LCLC-97TM1; first compound 158.11 µM): 0.634
relative viability (LCLC-97TM1; first compound 500 µM): 0.0334
relative viability (NCI-H1993; first compound 5 µM): 0.495
relative viability (NCI-H1993; first compound 15.81 µM): 0.262
relative viability (NCI-H1993; first compound 50 µM): 0.605
relative viability (NCI-H1993; first compound 158.11 µM): 0.522
relative viability (NCI-H1993; first compound 500 µM): 0.369
relative viability (NCI-H23; first compound 5 µM): 0.725
relative viability (NCI-H23; first compound 15.81 µM): 0.635
relative viability (NCI-H23; first compound 50 µM): 0.621
relative viability (NCI-H23; first compound 158.11 µM): 0.293
relative viability (NCI-H23; first compound 500 µM): 0.017
relative viability (NCI-H1915; first compound 5 µM): 0.294
relative viability (NCI-H1915; first compound 15.81 µM): 0.244
relative viability (NCI-H1915; first compound 50 µM): 0.245
relative viability (NCI-H1915; first compound 158.11 µM): 0.228
relative viability (NCI-H1915; first compound 500 µM): 0.169
relative viability (LC-2-ad; first compound 5 µM): 0.488
relative viability (LC-2-ad; first compound 15.81 µM): 0.51
relative viability (LC-2-ad; first compound 50 µM): 0.573
relative viability (LC-2-ad; first compound 158.11 µM): 0.259
relative viability (LC-2-ad; first compound 500 µM): 0.0544
relative viability (BEN; first compound 5 µM): 0.341
relative viability (BEN; first compound 15.81 µM): 0.293
relative viability (BEN; first compound 50 µM): 0.293
relative viability (BEN; first compound 158.11 µM): 0.267
relative viability (BEN; first compound 500 µM): 0.279
relative viability (LU99A; first compound 5 µM): 0.551
relative viability (LU99A; first compound 15.81 µM): 0.577
relative viability (LU99A; first compound 50 µM): 0.424
relative viability (LU99A; first compound 158.11 µM): 0.426
relative viability (LU99A; first compound 500 µM): 0.0381
relative viability (NCI-H1355; first compound 5 µM): 0.682
relative viability (NCI-H1355; first compound 15.81 µM): 0.697
relative viability (NCI-H1355; first compound 50 µM): 0.701
relative viability (NCI-H1355; first compound 158.11 µM): 0.53
relative viability (NCI-H1355; first compound 500 µM): 0.375
relative viability (NCI-H1650; first compound 5 µM): 0.353
relative viability (NCI-H1650; first compound 15.81 µM): 0.285
relative viability (NCI-H1650; first compound 50 µM): 0.312
relative viability (NCI-H1650; first compound 158.11 µM): 0.082
relative viability (NCI-H1650; first compound 500 µM): 0.0164
relative viability (PC-3 [JPC-3]; first compound 5 µM): 0.903
relative viability (PC-3 [JPC-3]; first compound 15.81 µM): 0.948
relative viability (PC-3 [JPC-3]; first compound 50 µM): 0.909
relative viability (PC-3 [JPC-3]; first compound 158.11 µM): 0.879
relative viability (PC-3 [JPC-3]; first compound 500 µM): 0.348
relative viability (NCI-H2228; first compound 5 µM): 0.559
relative viability (NCI-H2228; first compound 15.81 µM): 0.469
relative viability (NCI-H2228; first compound 50 µM): 0.437
relative viability (NCI-H2228; first compound 158.11 µM): 0.231
relative viability (NCI-H2228; first compound 500 µM): 0.0527
relative viability (LOU-NH91; first compound 5 µM): 0.564
relative viability (LOU-NH91; first compound 15.81 µM): 0.475
relative viability (LOU-NH91; first compound 50 µM): 0.532
relative viability (LOU-NH91; first compound 158.11 µM): 0.481
relative viability (LOU-NH91; first compound 500 µM): 0.499
